# Experiments:
# LXFA 289L = assay: Monolayer propidium iodide assay, LXFA 289L; assay type: cell-based; details: Homo sapiens, 96 h, Lung, 4 days of treatment
# Description: (§1) Oncotest GmbH, Germany's proprietary tumor cell line panel comprises 40 cell lines. These cell lines were derived from 15 different tumor histotypes, each represented by 1 to 6 different cell lines. Cell lines were established from cancer of the bladder (3), colon (4), head and neck (1), lung (6), breast (3), pancreas (3), prostate (4), ovary (2), kidney (3), liver (1), stomach (1) and the uteri body (1), as well as from melanoma (3), sarcoma (2) and pleuramesothelioma (3). Out of these 40 cell lines, 24 cell lines were established at Oncotest, from patient-derived tumor xenografts. […]
# (§2) Stock solutions of the compound of formula (1) (3.3 mM in DMSO) were prepared and stored in small aliquots (200 μl) at −20° C. […] Each concentration was evaluated in triplicate. […]
# (§3) Cells were plated in 96-well flat-bottom microtiter plates at a cell density of 4,000 to 20,000 cells/well. […] After an incubation period of 1-2 hours at room temperature, fluorescence (FU) was measured using the Cytofluor 4000 microplate reader (excitation λ=530 nm, emission λ=620 nm) to quantify the amount of attached viable cells. […] Based on the T/C values, relative IC50 values were determined by non-linear regression (log [conc. of inhibitor] versus response (% T/C)) using the GraphPad Prism® analysis software (Prism 5 for Windows, version 5.01, GraphPad Software Inc., CA). […]
# GXF 251 L = assay: Monolayer propidium iodide assay, GXF 251 L; assay type: cell-based; details: Homo sapiens, 96 h, Gastric, 4 days of treatment
# Description: as §1, §2, §3
# OVXF 899L = assay: Monolayer propidium iodide assay, OVXF 899L; assay type: cell-based; details: Homo sapiens, 96 h, Ovarian, 4 days of treatment
# Description: as §1, §2, §3
# MEXF 1341L = assay: Monolayer propidium iodide assay, MEXF 1341L; assay type: cell-based; details: Homo sapiens, 96 h, Melanoma, 4 days of treatment
# Description: as §1, §2, §3
# CXF HT 29 = assay: Monolayer propidium iodide assay, CXF HT 29; assay type: cell-based; details: Homo sapiens, 96 h; CXF HT 29, Colon; 4 days of treatment
# Description: as §1, §2, §3
# PXF 698L = assay: Monolayer propidium iodide assay, PXF 698L; assay type: cell-based; details: Homo sapiens, 96 h, Pleuramesothelioma, 4 days of treatment
# Description: as §1, §2, §3
# HNXF CAL 27 = assay: Monolayer propidium iodide assay, HNXF CAL 27; assay type: cell-based; details: Homo sapiens, 96 h; HNXF CAL 27, Head and Neck; 4 days of treatment
# Description: as §1, §2, §3
# OVXF OVCAR3 = assay: Monolayer propidium iodide assay, OVXF OVCAR3; assay type: cell-based; details: Homo sapiens, OVCAR-3, 96 h; OVXF OVCAR3, Ovarian; 4 days of treatment
# Description: as §1, §2, §3
# RXF 1781L = assay: Monolayer propidium iodide assay, RXF 1781L; assay type: cell-based; details: Homo sapiens, 96 h, Renal, 4 days of treatment
# Description: as §1, §2, §3
# LIXF 575L = assay: Monolayer propidium iodide assay, LIXF 575L; assay type: cell-based; details: Homo sapiens, 96 h, Liver, 4 days of treatment
# Description: as §1, §2, §3
# BXF 1352L = assay: Monolayer propidium iodide assay, BXF 1352L; assay type: cell-based; details: Homo sapiens, 96 h, Bladder, 4 days of treatment
# Description: as §1, §2, §3
# MAXF 401NL = assay: Monolayer propidium iodide assay, MAXF 401NL; assay type: cell-based; details: Homo sapiens, 96 h, Mammary, 4 days of treatment
# Description: as §1, §2, §3
# PXF 1118L = assay: Monolayer propidium iodide assay, PXF 1118L; assay type: cell-based; details: Homo sapiens, 96 h, Pleuramesothelioma, 4 days of treatment
# Description: as §1, §2, §3
# SXF TE671 = assay: Monolayer propidium iodide assay, SXF TE671; assay type: cell-based; details: Homo sapiens, TE-671, 96 h; SXF TE671, Sarcoma; 4 days of treatment
# Description: as §1, §2, §3
# LXFL 1121L = assay: Monolayer propidium iodide assay, LXFL 1121L; assay type: cell-based; details: Homo sapiens, 96 h, Lung, 4 days of treatment
# Description: as §1, §2, §3
# RXF 486L = assay: Monolayer propidium iodide assay, RXF 486L; assay type: cell-based; details: Homo sapiens, 96 h, Renal, 4 days of treatment
# Description: as §1, §2, §3
# MEXF 462NL = assay: Monolayer propidium iodide assay, MEXF 462NL; assay type: cell-based; details: Homo sapiens, 96 h, Melanoma, 4 days of treatment
# Description: as §1, §2, §3
# MAXF MDA 231 = assay: Monolayer propidium iodide assay, MAXF MDA 231; assay type: cell-based; details: Homo sapiens, MDA-MB-231, 96 h; MAXF MDA 231, Mammary; 4 days of treatment
# Description: as §1, §2, §3
# PRXF 22RV1 = assay: Monolayer propidium iodide assay, PRXF 22RV1; assay type: cell-based; details: Homo sapiens, 96 h; PRXF 22RV1, Prostate; 4 days of treatment
# Description: as §1, §2, §3
# MEXF 276L = assay: Monolayer propidium iodide assay, MEXF 276L; assay type: cell-based; details: Homo sapiens, MEXF276L, 96 h, Melanoma, 4 days of treatment
# Description: as §1, §2, §3
# PRXF PC3M = assay: Monolayer propidium iodide assay, PRXF PC3M; assay type: cell-based; details: Homo sapiens, PC-3M, 96 h, Prostate, 4 days of treatment
# Description: as §1, §2, §3
# [1] = Solubility (physical properties); assay type: physicochemical
# LXFL H 460 = assay: Monolayer propidium iodide assay, LXFL H 460; assay type: cell-based; details: Homo sapiens, NCI-H460, 96 h; LXFL H 460, Lung; 4 days of treatment
# Description: as §1, §2, §3
# MAXF MCF 7 = assay: Monolayer propidium iodide assay, MAXF MCF 7; assay type: cell-based; details: Homo sapiens, MCF7, 96 h; MAXF MCF 7, Mammary; 4 days of treatment
# Description: as §1, §2, §3
# PXF 1752L = assay: Monolayer propidium iodide assay, PXF 1752L; assay type: cell-based; details: Homo sapiens, 96 h, Pleuramesothelioma, 4 days of treatment
# Description: as §1, §2, §3
# PRXF DU 145 = assay: Monolayer propidium iodide assay, PRXF DU 145; assay type: cell-based; details: Homo sapiens, 96 h; PRXF DU 145, Prostate; 4 days of treatment
# Description: as §1, §2, §3
# CXF RKO = assay: Monolayer propidium iodide assay, CXF RKO; assay type: cell-based; details: Homo sapiens, 96 h, Colon, 4 days of treatment
# Description: as §1, §2, §3
smiles,measurement,setting,value
CCCC1CCCCCC(O)CC(=O)NC2CSSCC(NC2=O)C(=O)O1 (centres unmarked) [compound of formula (1)],IC50,LXFA 289L,41 nM
same,IC50,GXF 251 L,93 nM
same,IC50,OVXF 899L,301 nM
same,IC50,MEXF 1341L,102 nM
same,IC50,CXF HT 29,137 nM
same,IC50,PXF 698L,178 nM
same,IC50,HNXF CAL 27,39 nM
same,IC50,OVXF OVCAR3,195 nM
same,IC50,RXF 1781L,260 nM
same,IC50,LIXF 575L,295 nM
same,IC50,BXF 1352L,103 nM
same,IC50,MAXF 401NL,64 nM
same,IC50,PXF 1118L,54 nM
same,IC50,SXF TE671,82 nM
same,IC50,LXFL 1121L,47 nM
same,IC50,RXF 486L,159 nM
same,IC50,MEXF 462NL,149 nM
same,IC50,MAXF MDA 231,90 nM
same,IC50,PRXF 22RV1,159 nM
same,IC50,MEXF 276L,90 nM
same,IC50,PRXF PC3M,47 nM
same,Solubility,[1]; in chloroform and methanol,sparingly soluble in chloroform and methanol; and
same,Solubility,"[1]; in pyridine, acetic acid, dimethyl sulfoxide","Soluble in pyridine, acetic acid, dimethyl sulfoxide;"
same,Solubility,[1]; in water,insoluble in water
same,IC50,LXFL H 460,146 nM
same,IC50,MAXF MCF 7,276 nM
same,IC50,PXF 1752L,187 nM
same,IC50,PRXF DU 145,52 nM
same,IC50,CXF RKO,74 nM
